{"source": "patent US20230226227A1", "about": "“PROSTATE SPECIFIC MEMBRANE ANTIGEN (PSMA) LIGANDS AND USES THEREOF” (ADVANCED ACCELERATOR APPLICATIONS (ITALY) SRL, priority 2019, published 2023)", "key": {"[1]": {"experiment": "Plasma protein binding by ultrafiltration, mouse plasma", "format": "in vitro ADME", "procedure": "Plasma protein binding of PSMA-R2 and ^175Lu-PSMA-R2 has been determined by ultrafiltration method, after incubation of the compounds in human, mouse, rat and minipig plasma at two different concentrations: 1 and 5 µg/mL."}, "[2]": {"experiment": "Effect on respiration in the unrestrained conscious rat (whole-body plethysmography)", "format": "in vivo", "conditions": "single iv 0.2, 0.6, 2 mg/kg; over 4 hours post-injection", "procedure": "The aim of this study was to assess the possible effects of 0.2, 0.6 and 2.0 mg/kg ^175LuPSMA-R2 on respiratory function of conscious rats via a whole-body plethysmography method after intravenous administration according to the study design detailed in Table 3.\nInspiratory time, expiratory time, peak inspiratory flow, peak expiratory flow, tidal volume, relaxation time, minute volume, respiratory rate and enhanced pause were continuously recorded from approximately 1 hour before dosing up to 4 hours after dosing. Respiratory […] parameters were reported pre-dose and at 5, 15 and 30 minutes and 1, 1.5, 2, 3 and 4 hours after dosing. Clinical signs were recorded on the day of dosing."}, "[3]": {"experiment": "Effects on cardiovascular function of the conscious telemetered minipig", "format": "in vivo", "conditions": "iv 0.058, 0.175, 0.58 mg/kg", "procedure": "The purpose of this study was to investigate the potential effects of ^175Lu-PSMA-R2 on the cardiovascular functions of the conscious telemetered male minipig following intravenous administration at doses of 0.058, 0.175 and 0.583 mg/kg.\nThe test item or vehicle was administered intravenously into the external auricular vein at a fixed injection rate of 4 mL/min. The dose was administered to each animal at a dose volume of 1 mL/kg body weight.\nAt 7-day intervals, each animal received the vehicle or one of the three doses of the test item, following the crossover design described in Table 4.\nSystolic, diastolic and mean blood pressure (SBP, DBP and MBP), heart rate (HR), body temperature and Lead II electrocardiogram were recorded continuously, from 1 hour before administration up to 24 h after dosing. Haemodynamic and electrocardiographic data were reported at pre-dose and at 5, 15, 30 minutes and 1, 2, 4, 8 and 24 hours post-dose."}}, "data": [{"smiles": "O=C(O)CCC(NC(=O)NC(CCCCN(Cc1ccc(Br)cc1)C(=O)CCCCCNC(=O)CN1CCN(CC(=O)O)CCN(CC(=O)O)CCN(CC(=O)O)CC1)C(=O)O)C(=O)O.[175Lu]", "note": "(stereo not shown) [^175Lu-PSMA-R2]", "values": [{"measurement": "fu (%) fraction unbound", "setting": "[1]; 1 µg/mL", "result": "71.1 ± 4.4", "unit": "%"}, {"measurement": "fu (%) fraction unbound", "setting": "[1]; 5 µg/mL", "result": "71.0 ± 2.2", "unit": "%"}, {"measurement": "Changes in respiratory parameters", "setting": "[2]", "result": "No changes of toxicological significance were observed in respiratory parameters recorded over 4 hours post-injection."}, {"measurement": "Changes in heart rate, arterial blood pressure or electrocardiographic activity", "setting": "[3]", "result": "No relevant changes in heart rate, arterial blood pressure or electrocardiographic activity were observed at the tested doses in conscious mini pigs."}]}]}
